What all share (format): cell-based
Assay [1] concerns H146 (small cell lung cancer) cells. In words: CellTiter-Glo cell viability assay, H146 cells. Conditions: for viability at 0.1 µM / viability at 1 µM / viability at 10 µM: Homo sapiens, read-out: H146 cell viability after 48 hours of treatment; for cell killing / dose-dependent cell death in H146 cells, result in words: compared with CPT, floxuridine, etoposide (FIGS. 4-5, Table 3). From the text:
(§1) To determine the ability of Compound Dix-905 (also referred as Compound 905) to kill cancer cells, we performed a cell viability assay via CellTiter-Glo kit (Promega) using various cell lines. The kit measures the ATP levels via an enzymatic Luciferase assay. Viable cells, having normal metabolic rates and producing normal levels of ATP, will is have a high turnover of Luciferase substrates, which requires ATP for the enzymatic reaction and emits luminescent signals. By contrast, dying cells will have lower outcome of luminescent signals since their metabolic functions are diminished. The emitted luminescent signals will then be captured by a luminometer.
(§2) To perform the viability assay, small cell lung cancer cells (ATCC catalog No. H146), breast cancer cells (ATCC catalog No. MDAMB231) or colon cancer cells (ATCC catalog No. HCT116) were seeded in 96 wells and treated via Compound Dix-905 and other anti-cancer drugs for a time period of 24, 48, 72 hours. At each respective time point, cells were mixed with Cell Titer Glow reagents for 1 h and evaluated for luminescent signals.
In the “CPT” group, the H146 (small cell lung cancer) cells were treated with CPT (dissolved in DMSO) in 4 concentrations (0, 0.1, 1.0, 10 μM, respectively) for 48 hours; In the Dix-902, Dix-904 and Dix-906 groups, H146 (small cell lung cancer) cells were treated respectively with the corresponding compounds (dissolved in a saline solution) in 4 concentrations (0, 0.1, 1.0, 10 μM, respectively) for 48 hours.

Assay [2] relates to HCT116 (colon cancer) cells. Description: CellTiter-Glo cell viability assay, HCT116 cells. Conditions: for viability at 0.1 µM / viability at 1 µM / viability at 10 µM: Homo sapiens, HCT-116, 48 hours, read-out: HCT116 cell viability after 48 hours of treatment; for cell killing / dose-dependent cell death in HCT116 cells, result in words: compared with CPT, 5-FU, Etoposide (FIGS. 7-8, Table 5).
Excerpt: as §1, §2
In the “CPT” group, the is HCT116 cells were treated with CPT (dissolved in DMSO) in 4 concentrations (0, 0.1, 1.0, 10 μM, respectively) for 48 hours. In the Dix-902, Dix-904 and Dix-906 groups, HCT116 cells were treated respectively with the corresponding compounds (dissolved in a saline solution) in 4 concentrations (0, 0.1, 1.0, 10 μM, respectively) for 48 hours.
For orientation: ATP-based viability assays read luminescence as a measure of living cells.

Assay [3] concerns MDAMB231 (breast cancer) cells. In words: CellTiter-Glo cell viability assay, MDAMB231 cells. Conditions: Homo sapiens, read-out: MDAMB231 cell viability after 48 hours of treatment.
Excerpt: as §1, §2
In the “CPT” group, the MDAMB231 (breast cancer) cells were treated with CPT (dissolved in DMSO) in 4 concentrations (0, 0.1, 1.0, 10 μM, respectively) for 48 hours. In the Dix-902, Dix-904 and Dix-906 groups, MDAMB231 (breast cancer) cells were treated respectively with the corresponding compounds (dissolved in a saline solution) in 4 concentrations (0, 0.1, 1.0, 10 μM, respectively) for 48 hours.

In another assay the test system is H1693 cells. Description: Cell viability (cell killing) assay, H1693 cells. Conditions: compared with CPT, floxuridine, etoposide (FIGS. 1-2).
Assay [4] deals with Caspase 3/7 in H146 cells. Description: Caspase-Glo 3/7 caspase activation assay, H146 cells. Particulars: FIG. 6. Here is the method: (§3) For caspase activation, similar assays could be performed using the Caspase-Glo 3/7kit from Promega after cells were treated with respective agents for various time points. The mechanism of Caspase 3/7 Glow assay is by using Caspase 3/7 substrate fused with Luciferase substrate, which could be cleaved by activated Caspase 3/7. The released Luciferase substrate then undergoes an enzymatic reaction and emits luminescent signals. In contrast to the viability assay, the limiting step for this assay is caspase activation. Dying cells bearing the activated Casapses will have a high readout of luminescent signals in a luminometer.

The subject of assay [5] is Caspase 3/7 in H1693 cells. Description: Caspase-Glo 3/7 caspase activation assay, H1693 cells. Conditions: FIG. 3. Here is the method:
as §3

Structures are written as SMILES. “Also recorded” adds a separate entry of the source. Like-named read-outs stand apart in the source and are kept apart here.

In the case of `CC[C@@]1(OP(=O)(O)OC[C@H]2O[C@@H](n3cc(C)c(=O)[nH]c3=O)C[C@@H]2O)C(=O)OCc2c1cc1n(c2=O)Cc2cc3ccccc3nc2-1` [Dix-906], the viability at 0.1 µM in assay [1] (NCI-H146, 0.1 μM, 48 hours) was 64%; in assay [2], 90%; in assay [3] (MDA-MB-231, 0.1 μM, 48 hours), 14%. Further, the viability at 1 µM in assay [1] (NCI-H146, 1.0 μM, 48 hours) amounted to 45%; in assay [2] it was 71%; in assay [3] (MDA-MB-231, 1.0 μM, 48 hours) it was 4%. Besides, the viability at 10 µM in assay [1] (NCI-H146, 10 μM, 48 hours) came to 21%; in assay [2], 8%; in assay [3] (MDA-MB-231, 10 μM, 48 hours) it was 3%. For the same compound, in assay [1], the “cell killing / dose-dependent cell death in H146 cells, result in words” value is reported as “similarly to or even slightly better than that of CPT”. Besides, the “cell killing / dose-dependent cell death in HCT116 cells, result in words” value in assay [2] is “higher than that CPT”.
In the case of `CC[C@@]1(OP(=O)(O)OC[C@H]2O[C@@H](n3cc(F)c(=O)[nH]c3=O)C[C@@H]2O)C(=O)OCc2c1cc1n(c2=O)Cc2cc3ccccc3nc2-1` [Dix-905], the “cell killing / dose-dependent cell death in H146 cells, result in words” value in assay [1] was “cell killing response in H146 better than that of CPT; also recorded: more effective cell killing in H146 than that of CPT, floxuridine, and etoposide”. Further, the “cell killing / dose-dependent cell death in HCT116 cells, result in words” value was “Dose-dependent cell death” in assay [2]; “more effective in cell killing than that of CPT, 5-FU and Etoposide” in assay [2] (listed as DIX-905). Besides, the “cell killing in H1693 cells, result in words” value in the assay on H1693 cells was “cell killing response better than that of CPT; also recorded: more effective cell killing in H1693 than that of CPT, floxuridine, and etoposide”. Moreover, in assay [4], the “cell death in H146 via Caspase activation (apoptotic pathway)” value is “time- and dose-dependent cell death”. In addition, the “cell death in H1693 via Caspase activation (apoptotic pathway)” value in assay [5] is “time- and dose-dependent cell death”.
Regarding `CC[C@@]1(OP(=O)(O)OC[C@H]2O[C@@H](n3cnc4c(N)ncnc43)C[C@@H]2O)C(=O)OCc2c1cc1n(c2=O)Cc2cc3ccccc3nc2-1` [Dix-904], in assay [1] (NCI-H146, 48 h), the viability at 0.1 µM amounted to 67%, the viability at 1 µM turned out to be 44% and the viability at 10 µM was 19%. For the same compound, the “cell killing / dose-dependent cell death in H146 cells, result in words” value in assay [1] is “similarly to or even slightly better than that of CPT”. Besides, in assay [2], the viability at 0.1 µM was determined as 95%; the viability at 1 µM was 70%; the viability at 10 µM is 10%; the “cell killing / dose-dependent cell death in HCT116 cells, result in words” value is given as “higher than that CPT”. In assay [3] (MDA-MB-231, 48 h), the viability at 0.1 µM is 13%, the viability at 1 µM stood at 3% and the viability at 10 µM came to 1%.
Regarding `CC[C@@]1(OP(=O)(O)OC[C@H]2O[C@@H](n3ccc(N)nc3=O)C[C@@H]2O)C(=O)OCc2c1cc1n(c2=O)Cc2cc3ccccc3nc2-1` [Dix-902], in assay [1] (NCI-H146, 48 h), the viability at 0.1 µM was found to be 66%, the viability at 1 µM was determined as 43% and the viability at 10 µM was 20%. Moreover, the “cell killing / dose-dependent cell death in H146 cells, result in words” value in assay [1] was “similarly to or even slightly better than that of CPT”. Moreover, in assay [2], the viability at 0.1 µM stood at 87%; the viability at 1 µM is 68%; the viability at 10 µM is 9%; the “cell killing / dose-dependent cell death in HCT116 cells, result in words” value was “higher than that CPT”. Also, in assay [3] (MDA-MB-231, 48 h), the viability at 0.1 µM amounted to 15%, the viability at 1 µM was determined as 4% and the viability at 10 µM came to 2%.
On to `CC[C@@]1(O)C(=O)OCc2c1cc1n(c2=O)Cc2cc3ccccc3nc2-1` [CPT, Camptothecin], for which the viability at 0.1 µM in assay [1] (NCI-H146, 0.1 μM, 48 hours) came out at 65%; in assay [2] it was 96%; in assay [3] (MDA-MB-231, 0.1 μM, 48 hours) it was 13%. Further, the viability at 1 µM amounted to 51% in assay [1] (NCI-H146, 1.0 μM, 48 hours); 76% in assay [2]; 5% in assay [3] (MDA-MB-231, 1.0 μM, 48 hours). For the same compound, the viability at 10 µM in assay [1] (NCI-H146, 10 μM, 48 hours) stood at 24%; in assay [2] it was 11%; in assay [3] (MDA-MB-231, 10 μM, 48 hours), 3%. Further, in assay [2], the “cell killing / dose-dependent cell death in HCT116 cells, result in words” value was “Dose-dependent cell death”.

In general, viability refers to a per cent measure of how many cells are alive, often set against a control.

These data come from US9334299B2, “Water-soluble camptothecin derivative, pharmaceutical composition and use thereof” (Hunan Fangshenghuamei Medical Tech. Co. Ltd., priority 2011, dated 2016).
